A short description of this assay: blockers of an Epstein-Barr virus protein-peptide interaction – biochemical, fluorescence polarization, dose response (AID 1419). The following applies: cell-free protein-peptide binding, 2 h; for fold change: measured here: P channel fold over control, at 54 µM. Background: In fluorescence polarisation assays a small probe gives low polarisation when free and higher when bound to something large.

Active and inactive are the calls of the source. No rule for the calls is given here. Some results are limits rather than exact numbers.

On to `O=C(C1=NN(c2ccccc2)C2C(=O)N(c3ccc(Cl)cc3)C(=O)C12)c1ccccc1` (centres undefined), for which the IC50 was > 54 µM (inactive) and the fold change is 5.95.
In the case of `O=C(N=Nc1c(O)[nH]c2ccccc12)c1cc(-c2cccs2)[nH]n1`, the IC50 was 19.6 µM and the fold change came out at 0.72.
As for `Cc1ccc(S(=O)(=O)Nc2ccc(N3CCN(C)CC3)nc2)cc1`, the half-maximal inhibitory concentration (IC50) was 3.59 µM and the fold change turned out to be 2.82.
Taken in the same sequence, the figures for `COC(=O)CCCC1=CC2=CC(=O)C(C)(OC(=O)c3cccs3)C(=O)C2=CN1c1cccc(C#N)c1` (centres undefined) were > 54 µM (inactive) and 1.49.
For the compound `Fc1ccc(NCc2cccnc2)cc1F`, the IC50 was 2.14 µM and the fold change came to 3.89.
As to `COc1ccc2c(C=Nc3c(C)n(C)n(-c4ccccc4)c3=O)c(O)n(Cc3ccco3)c(=O)c2c1`, the concentration for half-maximal inhibition (IC50) is 4.28 µM and the fold change was determined as 3.39.
For the compound `c1ccc(-c2cn3nc4c(nc3n2)CCCC4)cc1`, the IC50 was 4.56 µM and the fold change was 2.57.
Taken in the same sequence, the figures for `O=C(OCCN1C(=O)c2cccc3c(N4CCOCC4)ccc(c23)C1=O)c1cccc(Cl)c1` were 2.52 µM and 56.6.
In the case of `O=C(CSc1n[nH]c(=O)[nH]c1=O)Nc1ccc2c(c1)C(=O)c1ccccc1C2=O`, the IC50 is 9.26 µM and the fold change turned out to be 1.21.
With `COc1cc(/C=C2\SC(=O)N(Cc3ccc(F)cc3)C2=O)cc([N+](=O)[O-])c1O`, the IC50 was > 54 µM (inactive) and the fold change was determined as 0.843.
Taken in the same sequence, the figures for `O=c1[nH]c(Nc2ccccc2)cc2ccccc12` were 2.02 µM and 2.34.
Taken in the same sequence, the figures for `CN(C)c1ccc(/C=C2\CCC/C(=C\c3ccccc3)C2=O)cc1` were 14.5 µM and 10.6.
With `CC(=O)[C@@H]1[C@@H]2C(=O)N(C3CCCCC3)C(=O)[C@@H]2C2c3ccccc3C=CN21` (some centres undefined), the IC50 was 51.9 µM (inactive) and the fold change worked out at 2.
Taken in the same sequence, the figures for `O=C(CCN1CCN(c2ccccc2)CC1)N/N=C/c1ccc(O)c(O)c1O` were > 54 µM (inactive) and 1.01.
With `Cc1ccc(N=C2NC(=O)/C(=C/c3cn(C)c4ccccc34)S2)cc1C`, the IC50 was 4.47 µM and the fold change was found to be 7.74.
For the compound `COc1cc(C=C2C(=O)c3ccccc3C2=O)cc(OC)c1OC`, the IC50 is > 54 µM (inactive) and the fold change amounted to 1.06.
On to `CCCCOC(=O)Cn1c2ccc(OC)cc2c2nc3ccccc3nc21`, for which the IC50 is 4.54 µM and the fold change amounted to 5.84.
As for `CCOc1ccc(C2CC(c3c(O)c4ccccc4oc3=O)=NN2c2ccccc2)cc1OC` (centres undefined), the IC50 is 2.06 µM and the fold change is 49.3.
Take `COc1ccc(NC(=O)Cn2ncc(Cl)c(Cl)c2=O)cc1S(=O)(=O)N1CCOCC1`: the IC50 was > 54 µM (inactive) and the fold change was 0.96.
Turning to `CCN(CC)c1ccc(C=C2C(=O)OC(c3ccccc3)OC2=O)cc1` (centres undefined), the half-maximal inhibitory concentration (IC50) is 14.6 µM and the fold change came out at 10.8.
In the case of `Cc1ccc(-c2noc(CCC(=O)N3CCCC3)n2)cc1`, the IC50 was > 54 µM (inactive) and the fold change is 1.01.
Take `C=CCN1C(=O)/C(=C\C=C2\N(C)c3ccccc3C2(C)C)SC1=S`: the concentration for half-maximal inhibition (IC50) was 5.07 µM and the fold change was 8.39.
With `Cc1[nH]c(=O)[nH]c(=O)c1CSCC(=O)OCC(=O)Nc1ccccn1`, the IC50 was > 54 µM (inactive) and the fold change stood at 1.09.
As to `O=C(c1ccccc1)c1ccc(O)cc1O`, the half-maximal inhibitory concentration (IC50) was < 0.42 µM and the fold change was 48.2.
Taken in the same sequence, the figures for `CCOC(=O)c1c(/N=C/c2c(O)n(-c3ccccc3F)c(=S)[nH]c2=O)sc2c1CCCC2` were 2.97 µM and 29.6.
For the compound `O=C1Nc2cc(Cl)cnc2N2CCCC12` (centres undefined), the IC50 is > 54 µM (inactive) and the fold change was 1.68.
With `Cc1cccc(N2C(=O)NC(=O)/C(=C/c3cc4c(cc3[N+](=O)[O-])OCO4)C2=O)c1`, the IC50 is 2.62 µM and the fold change was 3.71.
Regarding `CCSc1nc2sc3c(c2c(=O)[nH]1)CCCC3`, the IC50 is > 54 µM (inactive) and the fold change was found to be 1.05.
Taken in the same sequence, the figures for `C=CCn1c(=O)[nH]c2nc3cc(N=CN(C)C)c(C)cc3nc2c1=O` were < 0.42 µM and 40.
Consider `Cc1ccc(-c2nc(SCC(=O)Nc3ccccc3OC(F)F)c3c(C)c(C(=O)O)sc3n2)cc1`, for which the IC50 was 18.2 µM and the fold change came to 1.05.
Turning to `O=C(Cn1c2ccccc2c(=O)c2ccccc21)N/N=C/c1ccc(N2CCCC2)c([N+](=O)[O-])c1`, the IC50 is > 54 µM (inactive) and the fold change came to 0.76.
For `N#C/C(=C/c1ccc(-c2ccc(S(N)(=O)=O)cc2)o1)c1nc2ccccc2s1`, the IC50 was > 54 µM (inactive) and the fold change was 30.3.
Turning to `Cc1ccc(-n2cccc2/C=C2\C(=N)N3N=C(c4ccco4)SC3=NC2=O)cc1`, the IC50 is > 54 µM (inactive) and the fold change came out at 1.17.
Taken in the same sequence, the figures for `O=C1c2ccccc2-c2onc3ccc(NCc4ccco4)c1c23` were < 0.42 µM and 61.5.
`O=C1NC(=Nc2ccc(Cl)cc2)/C(=C/c2ccco2)S1`: the IC50 was 7.25 µM and the fold change turned out to be 0.667.
As to `Cc1cccc2cc3c(N)c(C(=O)N4CCCc5ccccc54)sc3nc12`, the IC50 is 9.62 µM and the fold change worked out at 4.66.
In the case of `Cc1ccc2cc3c(N)c4c(C)ccc(C)c4nc3nc2c1`, the half-maximal inhibitory concentration (IC50) is 0.92 µM and the fold change was determined as 6.77.
In the case of `Cc1nc(NC(=O)c2ccccc2)sc1-c1csc(Nc2ccc(C(=O)O)cc2)n1`, the IC50 is 2.31 µM and the fold change was 0.97.
For `Cc1cc(=O)oc2cc(OCC(=O)N/N=C/c3cc([N+](=O)[O-])ccc3O)ccc12`, the 50% inhibitory concentration (IC50) was 4.65 µM and the fold change stood at 1.
Taken in the same sequence, the figures for `COc1ccc(N/C=C2\C(=O)CCc3c2oc2cc(Cl)c(O)c(Cl)c32)cc1` were > 54 µM (inactive) and 11.2.
Taken in the same sequence, the figures for `CCCN1C(=O)/C(=C/C=C2\N(CC)c3ccccc3C2(C)C)SC1=S` were 0.95 µM and 12.
For the compound `NS(=O)(=O)c1ccc(N/N=C/c2ccc(O)c(O)c2O)c([N+](=O)[O-])c1`, the half-inhibitory concentration (IC50) was 3.19 µM and the fold change stood at 1.05.
Take `CCOc1ccc(NC(=O)c2cc3c(C)nc4ccccc4c3o2)cc1`: the IC50 is > 54 µM (inactive) and the fold change came to 0.947.
Consider `CCN(CC)C(=O)CSc1nnc2nnc3cc(OC)ccc3n12`, for which the IC50 is < 0.42 µM and the fold change was determined as 7.06.
With `Cc1ccc2c3c(cccc13)-c1ccccc1C2=O`, the IC50 is 2.37 µM and the fold change stood at 2.72.
As to `Cc1ccc(C)c(-n2c3nc(=O)[nH]c(=O)c-3cc3cc([N+](=O)[O-])ccc32)c1`, the IC50 was 8.3 µM and the fold change turned out to be 2.52.
Taken in the same sequence, the figures for `c1ccc(-c2[nH]c(-c3ccccc3)[n+](CC3CO3)c2-c2ccccc2)cc1` (centres undefined) were > 54 µM (inactive) and 0.99.
Take `CCOC(=O)/C(C#N)=C\c1ccc(N2CCN(C/C=C/c3ccccc3)CC2)cc1`: the half-maximal inhibitory concentration (IC50) was 18.7 µM and the fold change worked out at 16.
As for `Cc1ccc(C)c(S(=O)(=O)C(C#N)c2nc3ccccc3nc2N2CCCC2)c1` (centres undefined), the IC50 is 4.06 µM and the fold change stood at 1.67.
`O=c1[nH]c2c(s1)C=Nc1ccccc1N2`: the IC50 is 0.81 µM and the fold change is 9.16.
Taken in the same sequence, the figures for `COC(=O)c1cc2c(C)c(C)c3ccccn3c-2c1C(=O)OC` were 3.61 µM and 2.38.
As for `Cc1ccc2[nH]c(O)c(N=NC(=O)c3ccc(NS(=O)(=O)c4cccs4)cc3)c2c1`, the IC50 is > 54 µM (inactive) and the fold change came out at 0.957.
As for `CN(C)c1ccc(/C=C/C(=O)c2cc(Cl)ccc2O)cc1`, the IC50 was 15.9 µM and the fold change is 1.94.
Taken in the same sequence, the figures for `O=Cc1cnc(N2CCCCC2)s1` were > 54 µM (inactive) and 1.06.
As to `COc1ccc(N=Nc2nc3cc(Br)c(Br)cc3n2C)c(OC)c1`, the IC50 is 2.95 µM and the fold change was 5.37.
Taken in the same sequence, the figures for `COC(=O)c1ccccc1NC(=O)CCS(=O)(=O)c1ccc(Br)cc1` were 12.2 µM and 1.08.
For `CN1CCCc2cc3c(C(F)(F)F)cc(=O)oc3nc21`, the IC50 is < 0.42 µM and the fold change amounted to 18.4.
As to `c1ccc(-c2ccnc3nc(N4CCN(c5ccccc5)CC4)nn23)cc1`, the IC50 is > 54 µM (inactive) and the fold change turned out to be 0.987.
Consider `N=c1oc2cc(O)ccc2cc1C(=O)Nc1nc2ccccc2s1`, for which the IC50 was 13 µM and the fold change was 2.65.
As to `O=C1NC(=O)N(c2ccc(F)cc2)C(=O)/C1=C/c1ccc2c(c1)CCCN2Cc1ccccc1`, the IC50 is < 0.42 µM and the fold change amounted to 38.
As to `O=C(Nc1nccs1)C(c1ccccc1)N1CCCC1` (centres undefined), the IC50 was > 54 µM (inactive) and the fold change is 1.04.
Turning to `N#Cc1cc(C(=O)c2ccccc2O)cn(-c2nccs2)c1=O`, the IC50 is 5.3 µM and the fold change worked out at 14.2.
Regarding `CC(C)Oc1ccc(NC(=O)CCC(=O)O)cc1`, the IC50 is > 54 µM (inactive) and the fold change came out at 1.01.
Taken in the same sequence, the figures for `N#CC(c1nc2ccccc2nc1N1CCCC1)S(=O)(=O)c1ccccc1` (centres undefined) were > 54 µM (inactive) and 1.79.
With `CN1C[C@H](CO)C=C2c3cccc4[nH]cc(c34)C[C@H]21`, the IC50 was 12.4 µM and the fold change came to 1.62.
For `S=C(Nc1ccc2nc(-c3ccccn3)c(-c3ccccn3)nc2c1)N1CCCCC1`, the IC50 was > 54 µM (inactive) and the fold change was 1.3.
In the case of `COc1ccc(C(=O)c2sc3nc(C)cc(-c4cccs4)c3c2N)cc1OC`, the half-inhibitory concentration (IC50) is 16.5 µM and the fold change was found to be 7.43.

In general, IC50 refers to the point on the concentration scale where inhibition reaches its midpoint.
